Assay results from PubChem BioAssay (NCI).
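Five compound concentrations were applied to cells in 96-well plates for 48 hours; endpoints were derived by simple linear interpolation of the resulting dose-response curve. At the TGI there is no net growth.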

Columns and labels:
Experiment in all cases: inhibition of tumour cell growth, NCI panel, 48 h
786-0 renal = system: 786-0 renal
A498 renal = system: A498 renal
A549 NSCLC = system: A549 NSCLC
ACHN renal = system: ACHN renal
CAKI-1 renal = system: CAKI-1 renal
CCRF-CEM leukemia = system: CCRF-CEM leukemia
COLO 205 colon = system: COLO 205 colon
DLD-1 colon = system: DLD-1 colon
DMS 114 small cell lung = system: DMS 114 small cell lung
DMS 273 small cell lung = system: DMS 273 small cell lung
HCC-2998 colon = system: HCC-2998 colon
HCT-15 colon = system: HCT-15 colon
HL-60(TB) leukemia = system: HL-60(TB) leukemia
HOP-62 NSCLC = system: HOP-62 NSCLC
IGROV1 ovarian = system: IGROV1 ovarian
K-562 leukemia = system: K-562 leukemia
KM12 colon = system: KM12 colon
KM20L2 colon = system: KM20L2 colon
LOX IMVI melanoma = system: LOX IMVI melanoma
LXFL 529 NSCLC = system: LXFL 529 NSCLC
M14 melanoma = system: M14 melanoma
M19-MEL melanoma = system: M19-MEL melanoma
MALME-3M melanoma = system: MALME-3M melanoma
MOLT-4 leukemia = system: MOLT-4 leukemia
NCI-H226 lung = system: NCI-H226 lung
NCI-H23 lung = system: NCI-H23 lung
NCI-H460 lung = system: NCI-H460 lung
NCI-H522 lung = system: NCI-H522 lung
OVCAR-3 ovarian = system: OVCAR-3 ovarian
OVCAR-4 ovarian = system: OVCAR-4 ovarian
OVCAR-5 ovarian = system: OVCAR-5 ovarian
OVCAR-8 ovarian = system: OVCAR-8 ovarian
RPMI-8226 leukemia = system: RPMI-8226 leukemia
SF-268 CNS = system: SF-268 CNS
SF-295 CNS = system: SF-295 CNS
SF-539 CNS = system: SF-539 CNS
SK-MEL-2 melanoma = system: SK-MEL-2 melanoma
SK-MEL-28 melanoma = system: SK-MEL-28 melanoma
SK-MEL-5 melanoma = system: SK-MEL-5 melanoma
SN12C renal = system: SN12C renal
SNB-19 CNS = system: SNB-19 CNS
SR leukemia = system: SR leukemia
SW-620 colon = system: SW-620 colon
TK-10 renal = system: TK-10 renal
U251 CNS = system: U251 CNS
UACC-62 melanoma = system: UACC-62 melanoma
UO-31 renal = system: UO-31 renal
XF 498 CNS = system: XF 498 CNS

O=C1C2Cc3ccccc3CN2C(=O)N1CN1CCCCC1 (stereo not drawn)
TGI (786-0 renal): > 100 µM | TGI (A498 renal): > 100 µM | TGI (A549 NSCLC): > 100 µM | TGI (ACHN renal): > 100 µM | TGI (CAKI-1 renal): > 100 µM | TGI (CCRF-CEM leukemia): > 100 µM | TGI (COLO 205 colon): > 100 µM | TGI (DLD-1 colon): > 100 µM | TGI (DMS 114 small cell lung): > 100 µM | TGI (DMS 273 small cell lung): > 100 µM | TGI (HCC-2998 colon): > 100 µM | TGI (HCT-15 colon): > 100 µM | TGI (HL-60(TB) leukemia): 88.3 µM | TGI (HOP-62 NSCLC): > 100 µM | TGI (IGROV1 ovarian): > 100 µM | TGI (K-562 leukemia): > 100 µM | TGI (KM12 colon): > 100 µM | TGI (KM20L2 colon): > 100 µM | TGI (LOX IMVI melanoma): > 100 µM | TGI (LXFL 529 NSCLC): > 100 µM | TGI (M14 melanoma): > 100 µM | TGI (M19-MEL melanoma): > 100 µM | TGI (MALME-3M melanoma): > 100 µM | TGI (MOLT-4 leukemia): > 100 µM | TGI (NCI-H226 lung): > 100 µM | TGI (NCI-H23 lung): > 100 µM | TGI (NCI-H460 lung): > 100 µM | TGI (NCI-H522 lung): > 100 µM | TGI (OVCAR-3 ovarian): > 100 µM | TGI (OVCAR-4 ovarian): > 100 µM | TGI (OVCAR-5 ovarian): > 100 µM | TGI (OVCAR-8 ovarian): > 100 µM | TGI (RPMI-8226 leukemia): > 100 µM | TGI (SF-268 CNS): > 100 µM | TGI (SF-295 CNS): > 100 µM | TGI (SF-539 CNS): > 100 µM | TGI (SK-MEL-2 melanoma): > 100 µM | TGI (SK-MEL-28 melanoma): > 100 µM | TGI (SK-MEL-5 melanoma): > 100 µM | TGI (SN12C renal): > 100 µM | TGI (SNB-19 CNS): > 100 µM | TGI (SR leukemia): > 100 µM | TGI (SW-620 colon): > 100 µM | TGI (TK-10 renal): > 100 µM | TGI (U251 CNS): > 100 µM | TGI (UACC-62 melanoma): > 100 µM | TGI (UO-31 renal): > 100 µM | TGI (XF 498 CNS): > 100 µM
